Patent US20140349329A1, “DENSITY ANALYSIS OF ORGANISMS BY MAGNETIC LEVITATION” (President and Fellows of Harvard College, priority 2011, published 2014)

Key:
Assay type in all cases: in vivo
C. elegans [1] = assay: Density of C. elegans by magnetic levitation (MagLev) after exposure to drug; conditions: worms treated with 6 mM aspirin (and Nile Red); medium 33% Percoll, 67% M9 buffer, 135 mM Mn•EDTA, 0.057 mM Ivermectin; T=23° C; N=10 worms; untreated 1.074±0.001
Experimental: To show the applicability of the present methodologies, two experiments using magnetic levitation (MagLev) to quantify the change in density in different organisms are described. In particular, experiments were performed on C. elegans and embryos of Danio rerio (i.e., zebrafish). In these embodiments, the paramagnetic salt was chelated Mn•EDTA, and the osmolality of the paramagnetic medium was approximately isotonic with the species under study (˜300 mOsm/kg).
In the experiments on C. elegans, the organism was exposed to aspirin, which results in an accumulation of lipids in the organism due to the sequestration of coenzyme A and the inhibition of fatty acid degradation. A density estimate of C. elegans exposed to aspirin and the density of control C. elegans that were not exposed to aspirin was determined via a Percoll gradient. […] Aspirin-treated C. elegans were centrifuged with a set of density marker beads in order to measure the density of different populations of C. elegans qualitatively and to establish the ranges of interest for quantitative density measurements using MagLev. […]
Using MagLev, the density of different populations of C. elegans was calculated with high precision. […] The magnetic levitation set up used to quantify the density of each worm involved placing the sample between two magnets. […]

C. elegans [2] = assay: Density estimate of C. elegans by centrifugation in a Percoll gradient with density marker beads; conditions: qualitative
Experimental: In the experiments on C. elegans, the organism was exposed to aspirin, which results in an accumulation of lipids in the organism due to the sequestration of coenzyme A and the inhibition of fatty acid degradation. A density estimate of C. elegans exposed to aspirin and the density of control C. elegans that were not exposed to aspirin was determined via a Percoll gradient. The density of C. elegans changed upon exposure to aspirin with respect to an unexposed control group. Aspirin-treated C. elegans were centrifuged with a set of density marker beads in order to measure the density of different populations of C. elegans qualitatively and to establish the ranges of interest for quantitative density measurements using MagLev. A chelated form of manganese, ethylenediaminetetraacetic acid disodium manganese salt (Mn•EDTA), was used in the MagLev experiments as it is FDA approved for in vivo applications. The analysis of treated and untreated populations of C. elegans by MagLev employed concentrations of Mn•EDTA up to several hundred millimolar. C. elegans were motile within the paramagnetic solution and their swimming motion counteracted the balance of magnetic and gravitational forces within the MagLev device. Ivermectin was introduced into the paramagnetic solution to paralyze the organisms, this stabilized the organisms within the MagLev device.

[3] = system: embryos of Danio rerio (i.e., zebrafish); assay: Development of zebrafish embryos levitated in paramagnetic medium
Experimental: To show the applicability of the present methodologies, two experiments using magnetic levitation ([…]) to quantify the change in density in different organisms are described. In particular, experiments were performed on C. elegans and embryos of Danio rerio (i.e., zebrafish). In these embodiments, the paramagnetic salt was chelated Mn•EDTA, and the osmolality of the paramagnetic medium was approximately isotonic with the species under study ( 300 mOsm/kg). The development of zebrafish was monitored over a period of 54 h in a solution of 100 mM Gd•DTPA and 150 mM Gd•DTPA with Percoll and a saline solution (FIG. 4). […] In these experiments, four zebrafish embryos (collected from one strain of fish) were placed into a paramagnetic medium containing Gd•DTPA, Percoll and saline buffer. For these experiments, polystyrene spheres were included as density controls. After 16 hours of monitoring development, the levitation medium was changed to one composed of a higher concentration of the gadolinium chelate.

development of embryos in the paramagnetic solution ([3]; 100 mM and 150 mM Gd•DTPA with Percoll and saline solution, monitored over 54 h)	morphology of the embryos after increase in concentration of the paramagnetic salt ([3]; medium changed after 16 hours to a higher concentration of the gadolinium chelate)	SMILES	density of worms (MagLev) (C. elegans [1])	density of C. elegans upon exposure, with respect to unexposed control group (C. elegans [2])
–	–	CC(=O)Oc1ccccc1C(=O)O [aspirin]	1.070 ± 0.002 g/mL	changed
not affected	did not affect the morphology	O=C([O-])CN(CCN(CC(=O)[O-])CC(=O)O)CCN(CC(=O)[O-])CC(=O)O.[Gd+3] [Gd•DTPA]	–	–
